From the supplement of paper PMC8882468

Columns and labels:
Assay in all cases: CTG-3D luminescence at 96 h relative to day-0 seeding control (ratio to day 0); higher = more growth / less cytotoxicity; PDxO 3D drug screen (set 2), 96 h, CTG-3D normalised to day-0 seeding control.
[1] = test system: HCI-001 (organoid from a triple-negative breast cancer xenograft)
[2] = test system: HCI-002 (organoid from a triple-negative breast cancer xenograft)
[3] = test system: HCI-005.E2 (organoid from a breast cancer xenograft with a HER2-positive history)
[4] = test system: HCI-008 (organoid from a HER2-enriched breast cancer xenograft)
[5] = test system: HCI-015 (organoid from a triple-negative breast cancer xenograft)
[6] = test system: HCI-025 (organoid from a breast cancer xenograft)

CC(=O)O[C@@]12CO[C@@H]1C[C@H](O)[C@@]1(C)C(=O)[C@H](O)C3=C(C)[C@@H](OC(=O)[C@H](O)[C@@H](NC(=O)OC(C)(C)C)c4ccccc4)C[C@@](O)([C@@H](OC(=O)c4ccccc4)[C@H]21)C3(C)C [docetaxel]
CTG-3D luminescence at 96 h
Details	12.5 pM	0.00025 µM	0.005 µM	0.1 µM	1 µM	10 µM	100 µM	625 fM
[1], days in culture: 365	1.99	1.78	1.68	1.79	1.49	1.18	1.1	1.34
[1], days in culture: 397	1.11	1.7	1.28	1.67	1.72	1.72	0.311	0.889
[1], days in culture: 401	1	1.57	0.829	1.35	1.02	1.19	0.514	1.16
[2], days in culture: 127	0.447	0.957	0.452	0.428	0.356	0.422	0.298	0.543
[2], days in culture: 155	1.9	0.578	0.357	0.536	0.394	0.397	0.378	2.27
[2], days in culture: 168	3.45	3.13	0.43	0.281	0.324	0.319	0.115	4.39
[4], days in culture: 325	1.01	1.46	1.35	1.91	2.06	1.53	0.0817	1.14
[4], days in culture: 340	0.747	1.06	1.26	0.976	0.918	–	0.0677	0.77
[4], days in culture: 354	1.16	1.01	1.5	1.16	0.508	1.23	0.211	0.885
[4], days in culture: 382	1.56	1.35	0.719	0.823	0.446	0.547	0.0143	1.74
[5], days in culture: 333	1.1	0.869	0.428	0.469	0.526	0.304	0.0462	0.76
[5], days in culture: 355	1.2	0.928	0.736	0.737	0.975	0.684	0.105	0.757
[5], days in culture: 369	1.06	0.83	0.967	0.721	0.553	0.702	0.176	1.69
[6], days in culture: 175	0.586	0.61	0.547	0.494	0.674	0.771	0.387	0.704
[6], days in culture: 189	0.971	0.89	0.694	1.01	0.76	0.759	0.286	1.74
[6], days in culture: 212	2.49	1.38	0.974	0.822	0.332	0.385	0.187	0.772
[6], days in culture: 224	2.29	2.24	0.853	0.501	0.639	0.685	0.065	1.64

[3]
Details	CTG-3D luminescence at 96 h
12.5 pM	1.75
0.00025 µM	1.98
0.005 µM	2.07
0.1 µM	2.26
1 µM	2.22
10 µM	1.75
100 µM	0.813
625 fM	2.5

COc1cccc2c1C(=O)c1c(O)c3c(c(O)c1C2=O)C[C@@](O)(C(=O)CO)C[C@@H]3O[C@H]1C[C@H](N)[C@@H](O)[C@H](C)O1 [epirubicin]
CTG-3D luminescence at 96 h
Details	12.5 pM	0.00025 µM	0.005 µM	0.1 µM	1 µM	10 µM	100 µM	625 fM
[1], days in culture: 365	2.72	2.24	2.31	1.83	0.374	0.226	-0.00151	2.09
[1], days in culture: 397	1.49	2.3	1.7	1.3	0.405	0.197	-0.00311	1.83
[1], days in culture: 401	1.41	1.96	1.6	1.06	0.216	0.3	-0.00404	1.55
[2], days in culture: 127	2.39	2.93	2.65	2.23	0.362	0.034	-0.0164	3.16
[2], days in culture: 155	5.42	5.17	4.75	2.9	0.251	0.0733	-0.011	4.45
[2], days in culture: 168	3.2	3.41	3.79	1.24	0.0925	0.0935	-0.00758	3.54
[4], days in culture: 325	1.57	2.58	1.67	1.91	0.784	0.192	-0.00523	1.81
[4], days in culture: 340	1.38	1.84	1.52	1	0.612	–	-0.0051	1.34
[4], days in culture: 354	1.58	0.918	1.45	0.732	0.524	0.2	0.00146	1.46
[4], days in culture: 382	1.97	1.33	1.3	1.6	0.222	0.161	-0.000657	1.49
[5], days in culture: 333	2.58	1.36	1.49	0.405	0.191	0.0651	0.000859	1.94
[5], days in culture: 355	2.99	2	0.533	0.761	0.192	0.0805	0.00144	1.85
[5], days in culture: 369	2	1.58	2.14	0.514	0.143	0.117	0.000973	2.07
[6], days in culture: 175	1.67	1.16	0.961	0.846	0.14	0.0198	-0.00458	1.31
[6], days in culture: 189	2.65	2.38	1.58	1.14	0.108	0.00904	-0.0017	2.54
[6], days in culture: 212	1.54	2.81	3.5	1.27	0.125	0.0162	-0.000834	1.07
[6], days in culture: 224	1.88	2.11	1.45	0.576	0.0783	0.0108	-0.00319	1.79

[3]
Details	CTG-3D luminescence at 96 h
12.5 pM	1.54
0.00025 µM	1.65
0.005 µM	1.41
0.1 µM	0.977
1 µM	0.0317
10 µM	0.00772
100 µM	-0.000128
625 fM	1.98
